{"source": "paper PMC4854401", "about": "“Biochemical Mechanisms for Geographical Adaptations to Novel Toxin Exposures in Butterflyfish” (PLoS ONE, 2016)", "origin": "cited, not measured here", "tested_on": "CYP activity", "parameters": "method as in PMID 24272422", "details": "black swallowtails (Papilio polyxenes), dose-dependent; cited from earlier work", "data": [{"smiles": "COc1c2occc2cc2ccc(=O)oc12", "note": "[xanthotoxin]", "values": [{"measurement": "induced CYP activity, increase", "value": "seven fold"}]}]}
